Measured values published in PubChem BioAssay (NCI).
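Results reflect a 48-hour exposure of cells in 96-well plates to compound at five concentrations. Here, GI50 denotes the concentration required for 50% inhibition of growth. At the TGI there is no net growth.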

Tests used:
Experiment in all cases: NCI tumour cell line growth inhibition, 48 h
KM20L2 colon = system: KM20L2 colon
OVCAR-4 ovarian = system: OVCAR-4 ovarian
DMS 273 small cell lung = system: DMS 273 small cell lung
XF 498 CNS = system: XF 498 CNS
HOP-18 NSCLC = system: HOP-18 NSCLC
M19-MEL melanoma = system: M19-MEL melanoma
P388/ADR leukemia = system: P388/ADR leukemia
SN12K1 renal = system: SN12K1 renal
DLD-1 colon = system: DLD-1 colon
P388 leukemia = system: P388 leukemia
SNB-78 CNS = system: SNB-78 CNS
DMS 114 small cell lung = system: DMS 114 small cell lung
LXFL 529 NSCLC = system: LXFL 529 NSCLC
RXF-631 renal = system: RXF-631 renal

`O=C(N/N=C/c1cc(Br)cc(Br)c1[O-])c1ccccc1O.O=C(N/N=C/c1cc(Br)cc(Br)c1[O-])c1ccccc1O.[Zn+2]` was tested, and the TGI (KM20L2 colon) was 6.57 µM and the TGI (OVCAR-4 ovarian) was 1.5 µM.
`C=CCOC(=O)C1=C(C)NC2=N[C@H](CCCCCCCCC)C[C@@H]3CCC1N23` (some centres undefined) gave a TGI (OVCAR-4 ovarian) of 45.9 µM.
`CCCSc1ccc2[nH]c(N3C(=O)/C(=C/c4ccc(SC)cc4)N=C3c3ccccc3)cc2c1` showed a TGI (OVCAR-4 ovarian) greater than 50 µM.
Work on `Fc1ccc2c3c([nH]c2c1)CCN(Cc1ccccc1)C3` yielded a TGI (OVCAR-4 ovarian) of 56.1 µM.
`N[C@@H]1CCN(c2c(F)cc3c(=O)c(C(=O)O)cn4c3c2Oc2cc3c(ccc5ccccc53)cc2-4)C1` was tested, and the TGI (OVCAR-4 ovarian) was greater than 100 µM.
For `O=C(CSCC(=O)N/N=C\c1cccc([N+](=O)[O-])c1)N/N=C\c1cccc([N+](=O)[O-])c1`, the TGI (OVCAR-4 ovarian) was greater than 100 µM.
`CC(=O)NCC1OC2COC(c3ccccc3)OC2C(NC(=O)c2ccccc2)C1OC(=O)c1ccccc1` (centres undefined) gave a TGI (OVCAR-4 ovarian) greater than 100 µM.
With `COc1c(C(=O)NCCN(CCNC(=O)c2cccc(-c3cccc(C(=O)N(C)C)c3OC)c2OC)CCNC(=O)c2cccc(-c3cccc(C(=O)N(C)C)c3OC)c2OC)cccc1-c1cccc(C(=O)N(C)C)c1OC` the TGI (OVCAR-4 ovarian) was 84 µM.
`Cc1ccc2nc(C(C)C)c(=O)[nH]c2c1` was tested, and the TGI (OVCAR-4 ovarian) was greater than 100 µM.
For `CC(C)C1NC(=O)CC(c2ccccc2)N(N=O)C1c1ccccc1` (centres undefined), the TGI (DMS 273 small cell lung) was greater than 100 µM, the TGI (XF 498 CNS) was greater than 100 µM and the TGI (HOP-18 NSCLC) was greater than 100 µM. For the same molecule, the TGI (M19-MEL melanoma) was greater than 100 µM, the TGI (P388/ADR leukemia) was greater than 100 µM and the TGI (KM20L2 colon) was greater than 100 µM. For the same molecule, the TGI (SN12K1 renal) was greater than 100 µM, the TGI (DLD-1 colon) was greater than 100 µM and the TGI (OVCAR-4 ovarian) was greater than 100 µM. The TGI (P388 leukemia) was greater than 100 µM, the TGI (SNB-78 CNS) was greater than 100 µM and the TGI (DMS 114 small cell lung) was greater than 100 µM.
`COc1cc2c(c(OC)c1OC)-c1ccc(SC)c(=O)cc1[C@@H](O)CC2` was tested, and the GI50 (OVCAR-4 ovarian) was greater than 100 µM and the TGI (OVCAR-4 ovarian) was greater than 100 µM.
`O=C(NNC(=S)NC1CCCCC1)C12CC3CC(CC(C3)C1)C2` gave a TGI (OVCAR-4 ovarian) greater than 100 µM.
For `Cc1ccc2c(=O)cc(-c3ccc4ccccc4c3)[nH]c2n1`, the TGI (OVCAR-4 ovarian) was 93.2 µM.
For `O=[S@]1c2ccc3ccccc3c2N[C@@H]2[C@H]1[C@H]1C=C[C@@H]2C1`, the TGI (OVCAR-4 ovarian) was greater than 100 µM.
`CCOP(=O)(OCC)C(C(=O)OC)C(=O)C(=O)Nc1cccc(O)c1` (centres undefined) showed a TGI (OVCAR-4 ovarian) greater than 100 µM.
`COc1ccc2c(c1)CCCN1CCc3ccccc3C21` (centres undefined) was tested, and the TGI (OVCAR-4 ovarian) was greater than 100 µM.
Molecule `CC(=O)O[C@H]1C(=O)[C@@]2(C)[C@H]([C@H](OC(=O)c3ccccc3)[C@]3(O)C[C@H](OC(=O)[C@H](O)[C@@H](NC(=O)c4ccco4)c4ccccc4)C(C)=C1C3(C)C)[C@]1(OC(C)=O)CO[C@@H]1C[C@@H]2O` has a TGI (OVCAR-4 ovarian) greater than 12.5 µM.
`C=C(C(=O)OC)[C@@H]1C[C@@H](OC(C)=O)C2=C[C@H](C[C@@]3(C)O[C@@H]3C3=CC(C)=C(O3)[C@H]1OC(C)=O)OC2=O` showed a TGI (OVCAR-4 ovarian) greater than 100 µM.
For `CC1=CC[C@@]2(C)CC[C@](O)(C(C)C)C2C(OC(=O)c2ccccc2)C1` (some centres undefined), the TGI (OVCAR-4 ovarian) was 62.2 µM.
In the case of `CCOC(=O)/C(=N/Nc1ccccc1)N1C(=S)C=C(C)NN(C)C1=S`, the TGI (OVCAR-4 ovarian) was greater than 100 µM.
For `CC(C)=CCC[C@@H](C)C1=C(O)C(Nc2ccccc2Cl)=C(C)C(=O)C1=O`, the TGI (OVCAR-4 ovarian) was greater than 75 µM.
In the case of `CN(CCCNC(=O)c1cn(C)c2c1Cc1ccccc1-2)CCCNC(=O)c1cn(C)c2c1Cc1ccccc1-2`, the TGI (OVCAR-4 ovarian) was 26.8 µM.
Molecule `Cn1cc2ccccc2c1-c1nc(F)nc(Oc2ccc3c(c2)CC[C@@H]2C3CC[C@@]3(C)C2C[C@H](O)[C@@H]3O)n1` (some centres undefined) has a TGI (DMS 273 small cell lung) of 22 µM, a TGI (XF 498 CNS) of 60.3 µM and a TGI (HOP-18 NSCLC) of 54.8 µM. It also gave a TGI (M19-MEL melanoma) of 41.9 µM, a TGI (LXFL 529 NSCLC) of 27.4 µM and a TGI (KM20L2 colon) of 29.4 µM. The TGI (DLD-1 colon) was 22.1 µM, the TGI (SNB-78 CNS) was 54.2 µM and the TGI (DMS 114 small cell lung) was 25 µM.
In the case of `O=C(/C=C/c1ccccc1)Nc1ccccc1SCCCCl`, the TGI (OVCAR-4 ovarian) was greater than 100 µM.
In the case of `CCOC(=O)c1nc2cc(C(F)(F)F)ccc2nc1Nc1ccc(C(=O)OC)s1`, the TGI (OVCAR-4 ovarian) was greater than 100 µM.
For `COc1ccc(-c2c3c(n(C4OC(CO)C(O)C(O)C4O)c(=S)c2C#N)CCCC3)cc1` (centres undefined), the TGI (OVCAR-4 ovarian) was greater than 100 µM.
Work on `CCCCCCCCCOCC(COP(=O)([O-])OCC[N+](C)(C)C)OC` (centres undefined) yielded a TGI (DMS 273 small cell lung) greater than 100 µM, a TGI (XF 498 CNS) greater than 100 µM and a TGI (HOP-18 NSCLC) greater than 100 µM. It also gave a TGI (M19-MEL melanoma) greater than 100 µM, a TGI (P388/ADR leukemia) greater than 100 µM and a TGI (KM20L2 colon) greater than 100 µM. The TGI (SN12K1 renal) was greater than 100 µM, the TGI (DLD-1 colon) was greater than 100 µM and the TGI (OVCAR-4 ovarian) was greater than 100 µM. It also gave a TGI (P388 leukemia) greater than 100 µM, a TGI (SNB-78 CNS) greater than 100 µM and a TGI (DMS 114 small cell lung) greater than 100 µM.
`O=C(c1ccc(Cl)cc1)c1ccc(OCCCOc2ccc(C(=O)c3ccc(Cl)cc3)cc2Cl)c(Cl)c1` was tested, and the TGI (DMS 273 small cell lung) was greater than 100 µM, the TGI (XF 498 CNS) was greater than 100 µM and the TGI (M19-MEL melanoma) was greater than 100 µM. It also gave a TGI (LXFL 529 NSCLC) greater than 100 µM, a TGI (RXF-631 renal) greater than 100 µM and a TGI (KM20L2 colon) greater than 100 µM. The TGI (DLD-1 colon) was greater than 100 µM, the TGI (OVCAR-4 ovarian) was greater than 100 µM and the TGI (SNB-78 CNS) was greater than 100 µM. The TGI (DMS 114 small cell lung) was greater than 100 µM.
With `CC(=O)OCC(=O)OC[C@H](OCc1ccccc1)[C@@H]1[C@H](OC(C)=O)C(=O)N1Cc1ccccc1` the TGI (OVCAR-4 ovarian) was greater than 100 µM.
For `O=C1NN(Cc2ccccc2)C(=O)N2CCC[C@@H]12`, the TGI (OVCAR-4 ovarian) was greater than 100 µM.
For `CC1CCC2CC(=O)OC([C@@H]3C(=O)O[C@@H](C4=CCCC4)C4C(C)CCC43)C12` (some centres undefined), the TGI (DMS 273 small cell lung) was greater than 100 µM, the TGI (XF 498 CNS) was greater than 100 µM and the TGI (HOP-18 NSCLC) was greater than 100 µM. For the same molecule, the TGI (M19-MEL melanoma) was greater than 100 µM, the TGI (LXFL 529 NSCLC) was greater than 100 µM and the TGI (KM20L2 colon) was greater than 100 µM. The TGI (DLD-1 colon) was greater than 100 µM, the TGI (SNB-78 CNS) was greater than 100 µM and the TGI (DMS 114 small cell lung) was greater than 100 µM.
`CC(Nc1ccc(Cl)c(Cl)c1)c1ccncc1` (centres undefined) showed a TGI (OVCAR-4 ovarian) greater than 100 µM.
For `COC(=O)c1cc(NC(=O)Cc2c[nH]c3ccccc23)cn1C`, the TGI (OVCAR-4 ovarian) was greater than 100 µM.
In the case of `O=C1/C(=C/c2ccccc2[N+](=O)[O-])N=C(c2ccccc2)N1c1nc2ccccc2s1`, the TGI (OVCAR-4 ovarian) was 51 µM.
Work on `O=[N+]([O-])c1ccc(-n2nc3ccc4c(no[n+]4[O-])c3n2)cc1` yielded a TGI (OVCAR-4 ovarian) greater than 100 µM.
`O=C1O[C@H]2[C@H](OC(=O)c3cc(O)c(O)c(O)c3)[C@@H](OC(=O)c3cc(O)c(O)c4c3[C@@H]3C1=CC(=O)C(O)(O)C3(O)O4)[C@H](OC(=O)c1cc(O)c(O)c(O)c1)O[C@@H]2COC(=O)c1cc(O)c(O)c(O)c1` (some centres undefined) was tested, and the TGI (OVCAR-4 ovarian) was greater than 100 µM.
In the case of `CCOC(=O)/C=C(/C(=O)OCC)n1ccc(=O)n(Cc2cnnn2COCCOC(C)=O)c1=O`, the TGI (OVCAR-4 ovarian) was 41.5 µM.
In the case of `CCCCc1ccc(Nc2nc(OC)c3ncn(C4CC(O)C(CO)O4)c3n2)cc1` (centres undefined), the TGI (OVCAR-4 ovarian) was 35.9 µM.
Work on `NC1CCC(N(CC(=O)O)CC(=O)O)C(N(CC(=O)O)CC(=O)O)C1` (centres undefined) yielded a TGI (OVCAR-4 ovarian) greater than 100 µM.
`CCOC(=O)CC(NC(=O)c1[nH]cnc1/N=N/N(C)C)C(=O)OCC` (centres undefined) gave a TGI (DMS 273 small cell lung) greater than 100 µM, a TGI (M19-MEL melanoma) greater than 100 µM and a TGI (LXFL 529 NSCLC) greater than 100 µM. For the same molecule, the TGI (DLD-1 colon) was greater than 100 µM, the TGI (OVCAR-4 ovarian) was greater than 100 µM and the TGI (DMS 114 small cell lung) was greater than 100 µM.
